Where two headings read alike, the source gives them in different places. No end group written: not given here.
Key:
[1] = test system: penicilin-intermediate pneumococci
From the text: (§1) The antimicrobial peptides are thereafter tested using broth microdilution assay 5×10^5 cfu/ml against a total of 60 pneumococcal isolates (20 isolates for each penicillin-susceptible, -intermediate, and -resistant pneumococci) to determine their minimum inhibitory concentration (MIC).

[2] = test system: penicilin-susceptible pneumococci
From the text: as §1

[3] = test system: penicillin-resistant pneumococci
From the text: as §1

Streptococcus pneumoniae = assay: MIC by broth microdilution against all 60 pneumococcal isolates (overall); assay type: cell-based
From the text: as §1

S. aureus = assay type: cell-based, Staphylococcus aureus
Experimental: (§2) Apart from Streptococcus pneumonia, the antimicrobial peptides are also tested for antimicrobial activity against eight common bacterial pathogens of both gram-types as shown in Table 2. […] Testing against the gram-negative Acinetobacter baumannii (31.25 μg/ml) and Citrobacter spp.

E. coli = assay type: cell-based, Escherichia coli
Experimental: as §2

A. baumannii = assay type: cell-based, Acinetobacter baumannii
Experimental: as §2

E. cloacae = test system: E. cloacae
Experimental: as §2

K. pneumoniae = assay type: cell-based, Klebsiella pneumoniae
Experimental: as §2

Citrobacter spp. = assay type: cell-based
Experimental: as §2

[4] = test system: eight common bacterial pathogens of both gram-types; assay type: cell-based
Experimental: as §2

bacterial pathogens = assay: Spectrum of antibacterial activity (summary in words); assay type: cell-based; settings: against Streptococcus pneumoniae, Acinetobacter baumannii, Staphylococcus aureus, methicillin-resistant Staphylococcus aureus, Escherichia coli, Citrobacter spp.
P. aeruginosa = assay type: cell-based, Pseudomonas aeruginosa
Experimental: as §2

[5] = Pseudomonas aeruginosa, Enterococcus cloacae, Klebsiella pneumoniae
[6] = Pseudomonas aeruginosa, Enterococcus cloacae

Substance: GLFDIWAWWRWRR-NH2 (C-terminus assumed) [SEQ ID NO:2, Gly-Leu-Phe-Asp-Ile-Trp-Ala-Trp-Trp-Arg-Trp-Arg-Arg]
- EP (effective percentage, isolates inhibited within the effective range) [1]: 100%
- ER (effective range of minimum inhibitory concentration) [1]: 7.81 to 250 µg/mL
- EP (effective percentage, isolates inhibited within the effective range) [2]: 100%
- ER (effective range of minimum inhibitory concentration) [2]: 15.63 to 250 µg/mL
- EP (effective percentage, isolates inhibited within the effective range) [3]: 100%
- ER (effective range of minimum inhibitory concentration) [3]: 15.63 to 250 µg/mL
- Overall EP (Streptococcus pneumoniae): 100%
- MIC (S. aureus): 31.25 µg/mL
- MIC level against Staphylococcus aureus as compared to methicillin-resistant Staphylococcus aureus (S. aureus): two fold lower
- MIC (E. coli; Gram-negative): 250 µg/mL
- MIC (A. baumannii; Gram-negative): 31.25 µg/mL
- MIC (E. cloacae): >250 µg/mL
- MIC (K. pneumoniae): >250 µg/mL
- MIC (Citrobacter spp.; Gram-negative): 62.5 µg/mL
- activity against the other bacteria ([4]; bacteria of Table 2 other than S. aureus, MRSA, A. baumannii, Citrobacter spp., E. coli): non-active
- antimicrobial activity (bacterial pathogens): has antimicrobial activity

Substance: GLFDIWKKLRWRR-NH2 (C-terminus assumed) [SEQ ID NO:5, Gly-Leu-Phe-Asp-Ile-Trp-Lys-Lys-Leu-Arg-Trp-Arg-Arg]
- EP (effective percentage, isolates inhibited within the effective range) [1]: 100%
- ER (effective range of minimum inhibitory concentration) [1]: 15.63 to 125 µg/mL
- EP (effective percentage, isolates inhibited within the effective range) [2]: 100%
- ER (effective range of minimum inhibitory concentration) [2]: 15.63 to 125 µg/mL
- EP (effective percentage, isolates inhibited within the effective range) [3]: 100%
- ER (effective range of minimum inhibitory concentration) [3]: 31.25 to 125 µg/mL
- Overall EP (Streptococcus pneumoniae): 100%
- MIC (S. aureus): 125 µg/mL
- MIC (E. coli): 31.25 µg/mL
- MIC (P. aeruginosa): 31.25 µg/mL
- MIC (A. baumannii): 31.25 µg/mL
- MIC (E. cloacae): 125 µg/mL
- MIC (K. pneumoniae): 250 µg/mL
- MIC (Citrobacter spp.): 31.25 µg/mL
- range of minimum inhibitory concentrations [4]: 31.25 to 125 µg/mL
- antimicrobial activity (bacterial pathogens; [5]): have antimicrobial activity

Substance: GLFDIWKKWRWRR-NH2 (C-terminus assumed) [SEQ ID NO:4, Gly-Leu-Phe-Asp-Ile-Trp-Lys-Lys-Trp-Arg-Trp-Arg-Arg]
- Overall EP (Streptococcus pneumoniae): 100%
- antimicrobial activity (bacterial pathogens; [6]): have antimicrobial activity

Substance: GLFDIWKWWRWRR-NH2 (C-terminus assumed) [SEQ ID NO:3, Gly-Leu-Phe-Asp-Ile-Trp-Lys-Trp-Trp-Arg-Trp-Arg-Arg]
- EP (effective percentage, isolates inhibited within the effective range) [1]: 100%
- ER (effective range of minimum inhibitory concentration) [1]: 7.81 to 250 µg/mL
- EP (effective percentage, isolates inhibited within the effective range) [2]: 100%
- ER (effective range of minimum inhibitory concentration) [2]: 7.81 to 62.5 µg/mL
- EP (effective percentage, isolates inhibited within the effective range) [3]: 100%
- ER (effective range of minimum inhibitory concentration) [3]: 15.63 to 62.5 µg/mL
- Overall EP (Streptococcus pneumoniae): 100%
- MIC (E. cloacae): 31.25 µg/mL
- MIC (K. pneumoniae): 62.5 µg/mL
- MIC (Citrobacter spp.): 15.63 µg/mL
- range of minimum inhibitory concentration [4]: 7.81 to 125 µg/mL
- antimicrobial activity (bacterial pathogens; [5]): have antimicrobial activity

Substance: GLFDKWAWWRWRR-NH2 (C-terminus assumed) [SEQ ID NO:1, Gly-Leu-Phe-Asp-Lys-Trp-Ala-Trp-Trp-Arg-Trp-Arg-Arg]
- Overall EP (Streptococcus pneumoniae): 100%
- antimicrobial activity (bacterial pathogens; [6]): have antimicrobial activity

Reference: patent publication US8741852B2, “Peptides having antimicrobial activity” (Universiti Malaya, priority 2012, dated 2014)
